Where two headings read alike, the source gives them in different places.
Experiments:
PAI-1 promoter = PAI-1 promoter activity (PGL3/PAI-1 luciferase reporter) in transfected HepG2 cells; type: cell-based, human; settings: for Activity in cpm (PAI-1 promoter activity): 10 μM, 24 h, n=6; for inhibition at 10 µM: Homo sapiens, HepG2, 24 h, read-out: % inhibition/control (PAI-1 promoter activity)
Description: The study is carried out on a line of human hepatocytes HepG2 (ATCC, no. HB-8065). The cells are cultured in a medium of MEM (minimal essential medium) with glutamax-1 (Gibco™) containing 10% FCS (foetal calf serum), 1% non-essential amino acids and 1% sodium pyruvate and supplemented with penicillin and streptomycin.
A fragment of 2.5 kb, corresponding to the PAI-1 promoter, extending from the nucleotides at positions −2442 to +136, was amplified by PCR and sub-cloned (Lopez et al., 2000, Atherosclerosis, 152, 359-366). In a final reaction volume of 50 μl, 2.5 units of Platinum® TaqDNA Polymerase High Fidelity (Invitrogen) are placed in the presence of 300 ng of human genomic DNA (Clontech), 300 μM of dNTP (deoxynucleotide triphosphate) (Clontech), 300 nM of primers in a medium containing the buffer specific to the enzyme, supplemented by 1.5 mM of MgCl2 and different concentrations of PCRx Enhancer System (Invitrogen), which facilitates amplification of the especially difficult sequences (0 to 4×). The set of primers used (Chen et al. Differential mechanisms of PAI-1 gene activation by transforming growth factor beta and tumor necrosis factor alpha in endothelial cells, 2001, Thrmb Haemost, 86, 1563-72) is as follows:
Ligation of the pGL3-Basic plasmid vector and the insert corresponding to the PAI-1 promoter was carried out by means of T4 DNA Ligase (LigaFast™ Rapid DNA Ligation System from Promega). Conventionally, during ligation, there is used an excess of insert which is equivalent to three times the amount of vector. Furthermore, because this insert is half as long as the vector (2.5 kb as opposed to 4.8 kb), maintaining stoichiometric equilibrium requires twice the mass of […]. 37.5 ng of insert and 25 ng of pGL3-Basic vector were therefore reacted in the presence of 3 units of T4 ligase, at ambient temperature.
The PGL3/PAI-1 plasmid is transfected into HepG2 cells. Transfection is carried out in plates having cells at 50% confluence, depositing Lipofectin® (1 mg/ml) and 1.5 μg of PGL3/PAI-1 plasmid in each of the wells. The Lipofectin® is activated for 30 min in an OPTI-MEM medium (GIBCO™) and then brought into contact for 15 min with the plasmids previously diluted with the medium. The cells are incubated for 6 hours at 37° C. in an atmosphere containing 5% CO2 and 95% […]. The transfection medium is withdrawn and replaced overnight by an enriched culture medium in order to stabilise the cells. Expression of the reporter genes is induced over 24 h in an MEM medium without serum. The cells are scratched and lysed in a lysis buffer (Dual-Luciferase® kit, Promega) and then held at −20° C.
The induction phase is 24 h for the HepG2 cells in the presence of TGFβ1 (1 ng/ml). During that induction phase, a PAI-1 expression inhibitor may be added 4 h before TGFβ1 and kept in contact with the cells until the end of the 24 h of the induction phase.
The PAI-1 promoter activity is determined by quantification of the luciferase activity produced (Dual-Luciferase® kit, Promega). To each well there is added a solution of luciferin, the substrate of firefly luciferase. […] The plate is incubated for 10 min in the dark because the luciferase activity is sensitive to light, and then a luminometer reading is started in order to quantify the photons emitted (Wallac, Perkin Elmer), the result obtained being the average cpm (counts per minute) over a period of 5 s.
6,8-Diallyl-5,7-dihydroxy-2-(2-allyl-3-hydroxy-4-methoxyphenyl)-4H-1-benzopyran-4-one, arbitrarily referred to as compound A, and T686 of formula 3(E)-benzylidene-4(E)-(3,4,5-trimethoxybenzylidene)pyrrolidine-2,5-dione (PAI-1 expression inhibitor of reference, from Tanabe) were tested at a concentration of 10 μM on HepG2 cells in the basal state and after induction with TGFβ1. The PAI-1 promoter activity is measured in the control condition and in the presence of inhibitors, in the basal and induced states.

[1] = test system: arterial thrombosis induced by FeCl3 on the abdominal aorta; assay: Model of arterial thrombosis induced by FeCl3 on the abdominal aorta in the rat; type: in vivo; settings: male CD rats, 30 mg/kg/day per os for 5 days, FeCl3 50% on aorta
Description: The studies were carried out on male CD rats weighing between 250 and 400 g (Charles River Laboratories). The experimental protocol carried out on groups of from 6 to 8 rats comprises a group for each compound under test to be compared with a control group in which the rats are treated with a solvent. These rats are used to study the effects of an antithrombotic in a model of arterial thrombosis induced by FeCl3 on the abdominal aorta (Tanaka et al. Z-335, a new thromboxane A2 receptor antagonist, prevents arterial thrombosis induced by ferric chloride in rats, 2000, Eur. J. Pharmacol., 401, 413-418).
The rats are treated with the compound under test, for example 6,8-diallyl-5,7-dihydroxy-2-(2-allyl-3-hydroxy-4-methoxyphenyl)-4H-1-benzopyran-4-one (30 mg/kg/day) by administration per os by gavage for 5 days before arterial thrombosis is induced in those rats. The rats are anaesthetised using pentobarbital 50 mg/kg by intraperitoneal administration and their abdominal aortas are exposed following laparotomy. […]
The activity of 6,8-diallyl-5,7-dihydroxy-2-(2-allyl-3-hydroxy-4-methoxyphenyl)-4H-1-benzopyran-4-one is evaluated as a function of the weight of the clot removed from the aorta, that activity being greater for a lesser weight of clot.

[2] = HepG2, induced by TGFβ1 (1 ng/ml)

SMILES	Activity in cpm (PAI-1 promoter activity) (PAI-1 promoter; HepG2, basal condition) [cpm]	Activity in cpm (PAI-1 promoter activity) (PAI-1 promoter; [2]) [cpm]	inhibition at 10 µM (PAI-1 promoter; HepG2, basal condition) [%]	inhibition at 10 µM (PAI-1 promoter; [2]) [%]	reduction in the weight of the clot with respect to the control [1] [%]	Weight of clot ([1]; n=6, control 10.6 ± 0.7 mg) [mg]
C=CCc1c(-c2cc(=O)c3c(O)c(CC=C)c(O)c(CC=C)c3o2)ccc(OC)c1O [Compound A, 6,8-diallyl-5,7-dihydroxy-2-(2-allyl-3-hydroxy-4-methoxyphenyl)-4H-1-benzopyran-4-one]	445 ± 121	765 ± 138	69	78	~30	7.6 ± 0.4
COc1cc(/C=C2/C(=O)NC(=O)/C2=C/c2ccccc2)cc(OC)c1OC [Compound T686, 3(E)-benzylidene-4(E)-(3,4,5-trimethoxybenzylidene)pyrrolidine-2,5-dione, reference compound]	473 ± 143	1641 ± 173	67	52		

— patent publication US20080176934A1, “Use Of Diosmetin Compounds In The Treatment And Prevention Of Thrombotic Pathologies” (Les Laboratoires Servier, priority 2005, published 2008)
